Patent publication USRE45313E1, “Exendin variant peptides” (priority 1999, dated 2014)
Entries after “also recorded” stand apart in the source; their conditions may differ.

How the values were obtained:
diabetic ob/ob mice = test: Single dose effect of oral and parenteral administration on blood glucose levels in diabetic ob/ob mice (Example 24); format: in vivo
Excerpt: This was examined using Compound 5 to test the effect on blood glucose (BG) levels in the ob/ob mutant mice after intraperitoneal (i.p.) and peroral (p.o.) administration. […] Forty female diabetic ob/ob mice (Umeä strain, Bomholtgaard), which are obese due to a dominant mutant leptin (Tomita, T., Doull, V., Pollock, H. G., and Krizsan, D. 1992. Pancreatic islets of obese hyperglycemic mice (ob/ob). […] At arrival the animals were 8 weeks of age. The mice were allowed 2 weeks of acclimatization before experiments were initiated. At the time of experiment the mice were 13 weeks old with a body weight of 41.8±3.2 g (mean±SD; n=42). Handling of the mice one and three days before the experiment was performed in order to reduce stress-induced BG excursions. On the day of the experiment, blood was taken from the tip of the tail 2-3 hours after the light was turned on. A single drop of blood (<5 μl) was dropped on the glucose strip for analysis and measured by an Elite Autoanalyser, Bayer, Denmark. Whole blood glucose (BG) concentration was analysed by the immobilised glucose oxidase method. Blood glucose levels varied between normoglycaemia and severe hyperglycaemia (range: 3.6-15.6 mM; mean±SD: 9.4±3.3 mM: n=42). Six animals with BG <5.8 mM were excluded from the study (total n=36). The remaining animals were stratified based on their BG levels in order to ensure that the mean BG was similar among groups. […] Compound 5 (batch nr. ZP 3.12 fraction 1-2. […] The peptide was dissolved in sterile isotonic NaCl shortly before dosing and given in a volume of 0.2 ml. The same solutions were used for both p.o. and i.p. administration. For each animal, a data log sheet was filled out at the time of each blood sampling. […] During control conditions, BG levels in non-fasted ob/ob mice were similar in all groups (individual group data not shown), but within groups, there was a great scatter on BG levels (BG range for all animals: 5.8-15.6 mM). Therefore, to correct for the varying degree of hyperglycemia, results are expressed as the relative difference from baseline (% control). […] In most groups (5/6), BG increased between 4 and 8 hrs after drug administration. Compound 5 reduced the BG levels in a dose of 110 μg/mouse when administered i.p. in diabetic ob/ob mice (data not shown). The antidiabetic effect was observed after 60 minutes and was maximal 2-4 h after administration of the compound. […] Glucagon-like peptide-1 and the entero-insular axis in obese hyperglycaemic (ob/ob) mice.

ob/ob mice = test: Blood glucose levels in ob/ob mice after peroral and intraperitoneal administration (Example 25); format: in vivo
Excerpt: Forty female diabetic ob/ob mice (Umeä strain, Bomholtgaard), which are obese due to a dominant mutant leptin (Tomita, T., Doull, V., Pollock, H. G., and Krizsan, D. 1992. Pancreatic islets of obese hyperglycemic mice (ob/ob). Pancreas 7: 367-75) were housed (3 mice/cage) under controlled ambient conditions following a 12:12-h light: dark cycle and fed standard Altromin no 1324 diet with free access to tap water. At arrival the animals were 8 weeks of age. The mice were allowed 2 weeks of acclimatization before experiments were initiated. […] Handling of the mice one and three days before the experiment was performed in order to reduce stress-induced BG excursions. On the day of the experiment, blood was taken from the tip of the tail 2-3 hours after the light was turned on. A single drop of blood (<5 μl) was dropped on the glucose strip for analysis and measured by an Elite Autoanalyser, Bayer, Denmark. Whole blood glucose (BG) concentration was analysed by the immobilised glucose oxidase method. […] Six animals with BG <5.8 mM were excluded from the study (total n=36). The remaining animals were stratified based on their BG levels in order to ensure that the mean BG was similar among groups.
Various concentrations of each peptide are administered orally and intraperitoneally to ob/ob mice to determine if these compounds affect blood glucose levels. The experimental conditions used were the same as described in Example 24.
Solutions are prepared on the morning of dosing, immediately before the animals are administered. The same solutions are used for both peroral and interperitoneal administration. All peptides are dissolved in sterile isotonic NaCl and given in a volume of 0.2 ml. As negative control, saline is administered perorally.
In order to analyse the effects of the compounds, the absolute and the relative (% of t=0) difference from baseline was calculated for each time point.

Row | SMILES | blood glucose relative to baseline (ob/ob mice; 1 μg po, 1 hour) | blood glucose relative to baseline (ob/ob mice; 1 μg po, 2 hours) | blood glucose relative to baseline (ob/ob mice; 1 μg po, 4 hours) | blood glucose relative to baseline (ob/ob mice; 10 μg po, 1 hour) | blood glucose relative to baseline (ob/ob mice; 10 μg po, 2 hours) | blood glucose relative to baseline (ob/ob mice; 10 μg po, 4 hours) | blood glucose relative to baseline (ob/ob mice; 100 μg ip, 1 hour) | blood glucose relative to baseline (ob/ob mice; 100 μg ip, 2 hours) | blood glucose relative to baseline (ob/ob mice; 100 μg ip, 4 hours) | blood glucose relative to baseline (ob/ob mice; 100 μg po, 1 hour) | blood glucose relative to baseline (ob/ob mice; 100 μg po, 2 hours) | blood glucose relative to baseline (ob/ob mice; 100 μg po, 4 hours) | blood glucose relative to baseline (ob/ob mice; 1000 μg po, 1 hour) | blood glucose relative to baseline (ob/ob mice; 1000 μg po, 2 hours) | blood glucose relative to baseline (ob/ob mice; 1000 μg po, 4 hours) | other results
1 | CCCCCCCCCCCCCCCC(=O)NCCCC[C@H](NC(=O)[C@H](CCCNC(=N)N)NC(=O)CNC(=O)[C@H](CCCCN)NC(=O)[C@@H](NC(=O)[C@H](CC(C)C)NC(=O)[C@H](Cc1c[nH]c2ccccc12)NC(=O)[C@H](C)NC(=O)[C@@H](NC(=O)[C@H](Cc1ccccc1)NC(=O)[C@H](CCC(=O)O)NC(=O)[C@H](CCCCN)NC(=O)[C@H](C)NC(=O)[C@H](C)NC(=O)[C@H](CCC(N)=O)NC(=O)CNC(=O)[C@H](CCC(=O)O)NC(=O)[C@H](CC(C)C)NC(=O)[C@H](Cc1ccc(O)cc1)NC(=O)[C@H](CO)NC(=O)[C@H](CO)NC(=O)[C@@H](NC(=O)[C@H](CC(=O)O)NC(=O)[C@H](CO)NC(=O)[C@@H](NC(=O)[C@H](Cc1ccccc1)NC(=O)[C@@H](NC(=O)CNC(=O)[C@H](CCC(=O)O)NC(=O)CNC(=O)[C@@H](N)Cc1c[nH]cn1)[C@@H](C)O)[C@@H](C)O)C(C)C)[C@@H](C)CC)C(C)C)C(=O)N[C@@H](CCCCN)C(=O)N[C@@H](CCCCN)C(=O)N[C@@H](CCCCN)C(=O)N[C@@H](CCCCN)C(=O)N[C@@H](CCCCN)C(=O)N[C@@H](CCCCN)C(N)=O [Compound 5] | 111 % of t=0 | 133 % of t=0 | 114 % of t=0 | 90 % of t=0 | 120 % of t=0 | 126 % of t=0 | 63 % of t=0 | 50 % of t=0 | 52 % of t=0 | 97 % of t=0 | 140 % of t=0 | 107 % of t=0 | 73 % of t=0 | 75 % of t=0 | 67 % of t=0 | time of BG nadir after administration (diabetic ob/ob mice; 110 μg i.p.): 1 to 2 h; duration of effect (long-lasting effect) (diabetic ob/ob mice; 110 μg/mouse i.p.): > 8 h; effect on blood glucose (BG) levels (diabetic ob/ob mice; 110 μg/mouse i.p.): reduced BG levels; also recorded: sustained decrease in BG; also recorded: effectively lowers BG levels; time at which antidiabetic effect was observed (diabetic ob/ob mice; 110 μg/mouse i.p.): 60 min; time of maximal antidiabetic effect after administration (diabetic ob/ob mice; 110 μg/mouse i.p.): 2 to 4 h; effect on blood glucose (BG) levels (diabetic ob/ob mice; p.o., doses lower than 1100 μg/mouse): not at lower doses
2 | CC[C@H](C)[C@H](NC(=O)[C@H](Cc1ccccc1)NC(=O)[C@H](CCC(=O)O)NC(=O)[C@H](CCCCN)NC(=O)[C@H](C)NC(=O)[C@H](C)NC(=O)[C@H](CCC(N)=O)NC(=O)CNC(=O)[C@H](CCC(=O)O)NC(=O)[C@H](CC(C)C)NC(=O)[C@H](Cc1ccc(O)cc1)NC(=O)[C@H](CO)NC(=O)[C@H](CO)NC(=O)[C@@H](NC(=O)[C@H](CC(=O)O)NC(=O)[C@H](CO)NC(=O)[C@@H](NC(=O)[C@H](Cc1ccccc1)NC(=O)[C@@H](NC(=O)CNC(=O)[C@H](CCC(=O)O)NC(=O)CNC(=O)[C@@H](N)Cc1c[nH]cn1)[C@@H](C)O)[C@@H](C)O)C(C)C)C(=O)N[C@@H](C)C(=O)N[C@@H](Cc1c[nH]c2ccccc12)C(=O)N[C@@H](CC(C)C)C(=O)N[C@H](C(=O)N[C@@H](CCCCN)C(=O)NCC(=O)N[C@@H](CCCNC(=N)N)C(=O)N[C@@H](CCCCN)C(=O)N[C@@H](CCCCN)C(=O)N[C@@H](CCCCN)C(=O)N[C@@H](CCCCN)C(=O)N[C@@H](CCCCN)C(=O)N[C@@H](CCCCN)C(N)=O)C(C)C [Compound 4] | 99 % of t=0 | 89 % of t=0 | 84 % of t=0 | 98 % of t=0 | 95 % of t=0 | 81 % of t=0 | 83 % of t=0 | 58 % of t=0 | 56 % of t=0 | 72 % of t=0 | 70 % of t=0 | 58 % of t=0 | 128 % of t=0 | 72 % of t=0 | 78 % of t=0 | –
